Data published in paper PMC5122408, “High throughput chemical library screening identifies a novel p110-δ inhibitor that potentiates the anti-myeloma effect of bortezomib” (Oncotarget, 2016).
Where two headings read alike, the source gives them in different places.

How the values were obtained:
[1] = target: VPS34 (Homo sapiens, UniProt Q8NEB9); experiment: Kinase inhibitory profile; format: biochemical; settings: Class III PI3Ks; 10-point concentration assays
[2] = system: RPMI8226 cells; experiment: XTT viability of RPMI8226 cells after PIK3CD shRNA knockdown; format: cell-based; settings: XTT assay
Experimental: (§1) Values represent the average of triplicate measurements. […] Values represent the average of triplicate measurements. […] Values represent the average of triplicate measurements.
(§2) Cells were plated, treated as indicated for 72 h and 2, 3-bis-(2-methoxy-4-nitro-5-sulfophenyl)-2H-tetrazolium-5-carboxanilide) added (Sigma-Aldrich) after activation with N-methyl dibenzopyrazine methyl sulfate (Sigma-Aldrich). Absorbance was measured and the effect on myeloma viability determined as previously described. Assays were performed in triplicate and the mean and standard deviation determined. Relative cell viability (mean ± SD) was calculated compared to readings from untreated cells.
shRNA in pLKO.1-TCR lentiviral cloning vectors were transfected into 293T packaging cells with packaging and envelope vector using lipofectamine 2000 (Thermo-Fisher). Viral supernatants were used to transduce myeloma cells. After 48 h, virus was collected and RPMI8226 cells transduced with vectors expressing scrambled (control) or p110-specific shRNA. Cells were mixed with virus and polybrene (8 μg/mL), centrifuged at 2000 × rpm for 90 min, incubated overnight, media changed and selected in puromycin.

[3] = system: MOLT-4; experiment: NCI-60 panel cell growth screen; format: cell-based, human; settings: MOLT-4 (Leukemia)
[4] = system: AMPK; experiment: Kinase inhibitory profile; format: biochemical; settings: Other Clinically-relevant Kinases; 10-point concentration assays
[5] = system: MM cells; experiment: XTT viability, MM cells (DT97 vs idelalisib); format: cell-based; settings: parental and drug-resistant MM cells; 1 uM; 72 h; XTT assay
Experimental: as §1, §2

[6] = target: PKC2-α (Homo sapiens, UniProt O00443); experiment: Kinase inhibitory profile; format: biochemical; settings: Class II PI3Ks; 10-point concentration assays
PKC2-α, sequence (O00443 whole entry): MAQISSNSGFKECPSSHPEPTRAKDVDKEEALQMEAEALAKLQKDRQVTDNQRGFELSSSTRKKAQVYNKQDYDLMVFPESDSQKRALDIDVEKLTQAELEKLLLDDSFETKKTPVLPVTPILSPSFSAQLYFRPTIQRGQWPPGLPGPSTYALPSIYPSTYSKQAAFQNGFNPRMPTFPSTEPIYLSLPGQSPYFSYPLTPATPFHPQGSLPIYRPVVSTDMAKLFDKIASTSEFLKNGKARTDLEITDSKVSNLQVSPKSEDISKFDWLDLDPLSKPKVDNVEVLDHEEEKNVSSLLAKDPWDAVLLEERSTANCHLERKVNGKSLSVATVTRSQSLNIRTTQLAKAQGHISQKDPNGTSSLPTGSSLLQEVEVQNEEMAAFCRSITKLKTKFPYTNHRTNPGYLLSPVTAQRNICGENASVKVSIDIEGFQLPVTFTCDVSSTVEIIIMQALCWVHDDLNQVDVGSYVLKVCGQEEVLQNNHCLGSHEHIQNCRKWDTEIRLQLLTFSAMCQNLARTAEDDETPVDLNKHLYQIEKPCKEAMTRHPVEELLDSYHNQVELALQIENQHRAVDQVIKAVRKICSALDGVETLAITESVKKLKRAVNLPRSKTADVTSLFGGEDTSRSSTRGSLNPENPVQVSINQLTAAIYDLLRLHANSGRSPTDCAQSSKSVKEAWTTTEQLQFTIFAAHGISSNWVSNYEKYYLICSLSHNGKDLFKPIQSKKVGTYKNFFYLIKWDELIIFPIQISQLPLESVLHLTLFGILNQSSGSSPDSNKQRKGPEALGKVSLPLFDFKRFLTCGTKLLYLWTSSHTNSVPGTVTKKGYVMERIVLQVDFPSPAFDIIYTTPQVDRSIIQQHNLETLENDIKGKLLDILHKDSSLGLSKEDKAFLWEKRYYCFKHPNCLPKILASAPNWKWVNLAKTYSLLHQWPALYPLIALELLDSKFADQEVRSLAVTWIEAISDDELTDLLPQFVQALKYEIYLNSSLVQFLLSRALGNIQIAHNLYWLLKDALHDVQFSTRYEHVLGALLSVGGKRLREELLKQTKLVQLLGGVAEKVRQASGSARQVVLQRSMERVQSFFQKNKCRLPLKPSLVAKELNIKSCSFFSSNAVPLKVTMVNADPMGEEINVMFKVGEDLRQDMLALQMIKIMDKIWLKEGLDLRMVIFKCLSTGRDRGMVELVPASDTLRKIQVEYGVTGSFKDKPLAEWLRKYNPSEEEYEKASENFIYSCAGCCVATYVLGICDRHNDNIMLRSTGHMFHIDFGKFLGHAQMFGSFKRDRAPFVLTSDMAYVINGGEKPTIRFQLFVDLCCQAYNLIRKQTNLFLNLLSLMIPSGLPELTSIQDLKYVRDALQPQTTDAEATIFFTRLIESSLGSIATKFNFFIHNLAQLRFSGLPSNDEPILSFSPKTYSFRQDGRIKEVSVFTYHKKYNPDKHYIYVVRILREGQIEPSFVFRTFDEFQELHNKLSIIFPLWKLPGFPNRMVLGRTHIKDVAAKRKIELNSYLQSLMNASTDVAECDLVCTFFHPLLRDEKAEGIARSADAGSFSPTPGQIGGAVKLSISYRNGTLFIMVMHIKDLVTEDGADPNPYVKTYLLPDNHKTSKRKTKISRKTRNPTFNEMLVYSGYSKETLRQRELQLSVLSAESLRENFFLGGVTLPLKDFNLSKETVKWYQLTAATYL

[7] = system: MAPK; experiment: Kinase inhibitory profile; format: biochemical; settings: Other Clinically-relevant Kinases; 10-point concentration assays
[8] = system: MM cells; experiment: Transwell chemotaxis of CFSE-labeled MM cells toward BMSCs; format: cell-based; settings: counted at 72 h
Description: BMSCs induce the migration and homing (chemotaxis) of MM cells to BM. […] MM cells were placed in the upper chamber separated from BMSCs in the lower chamber by a semi-permeable membrane. […] It appears that DT97 treatment prevents MM migration, in part, through the reduction of cytokine production.

[9] = system: SF-268; experiment: NCI-60 panel cell growth screen; format: cell-based, human; settings: SF-268 (CNS Cancer)
[10] = system: HO-92; experiment: NCI-60 panel cell growth screen; format: cell-based, human; settings: HO-92 (NSCLC)
[11] = system: HCT-15; experiment: NCI-60 panel cell growth screen; format: cell-based, human; settings: HCT-15 (Colon cancer)
[12] = system: NCI-H332M; experiment: NCI-60 panel cell growth screen; format: cell-based, human; settings: NCI-H332M (NSCLC)
[13] = system: EKVX; experiment: NCI-60 panel cell growth screen; format: cell-based, human; settings: EKVX (NSCLC)
[14] = target: PKC2β (Homo sapiens, UniProt O00750); experiment: Kinase inhibitory profile; format: biochemical; settings: Class II PI3Ks; 10-point concentration assays
PKC2β, sequence (O00750 whole entry): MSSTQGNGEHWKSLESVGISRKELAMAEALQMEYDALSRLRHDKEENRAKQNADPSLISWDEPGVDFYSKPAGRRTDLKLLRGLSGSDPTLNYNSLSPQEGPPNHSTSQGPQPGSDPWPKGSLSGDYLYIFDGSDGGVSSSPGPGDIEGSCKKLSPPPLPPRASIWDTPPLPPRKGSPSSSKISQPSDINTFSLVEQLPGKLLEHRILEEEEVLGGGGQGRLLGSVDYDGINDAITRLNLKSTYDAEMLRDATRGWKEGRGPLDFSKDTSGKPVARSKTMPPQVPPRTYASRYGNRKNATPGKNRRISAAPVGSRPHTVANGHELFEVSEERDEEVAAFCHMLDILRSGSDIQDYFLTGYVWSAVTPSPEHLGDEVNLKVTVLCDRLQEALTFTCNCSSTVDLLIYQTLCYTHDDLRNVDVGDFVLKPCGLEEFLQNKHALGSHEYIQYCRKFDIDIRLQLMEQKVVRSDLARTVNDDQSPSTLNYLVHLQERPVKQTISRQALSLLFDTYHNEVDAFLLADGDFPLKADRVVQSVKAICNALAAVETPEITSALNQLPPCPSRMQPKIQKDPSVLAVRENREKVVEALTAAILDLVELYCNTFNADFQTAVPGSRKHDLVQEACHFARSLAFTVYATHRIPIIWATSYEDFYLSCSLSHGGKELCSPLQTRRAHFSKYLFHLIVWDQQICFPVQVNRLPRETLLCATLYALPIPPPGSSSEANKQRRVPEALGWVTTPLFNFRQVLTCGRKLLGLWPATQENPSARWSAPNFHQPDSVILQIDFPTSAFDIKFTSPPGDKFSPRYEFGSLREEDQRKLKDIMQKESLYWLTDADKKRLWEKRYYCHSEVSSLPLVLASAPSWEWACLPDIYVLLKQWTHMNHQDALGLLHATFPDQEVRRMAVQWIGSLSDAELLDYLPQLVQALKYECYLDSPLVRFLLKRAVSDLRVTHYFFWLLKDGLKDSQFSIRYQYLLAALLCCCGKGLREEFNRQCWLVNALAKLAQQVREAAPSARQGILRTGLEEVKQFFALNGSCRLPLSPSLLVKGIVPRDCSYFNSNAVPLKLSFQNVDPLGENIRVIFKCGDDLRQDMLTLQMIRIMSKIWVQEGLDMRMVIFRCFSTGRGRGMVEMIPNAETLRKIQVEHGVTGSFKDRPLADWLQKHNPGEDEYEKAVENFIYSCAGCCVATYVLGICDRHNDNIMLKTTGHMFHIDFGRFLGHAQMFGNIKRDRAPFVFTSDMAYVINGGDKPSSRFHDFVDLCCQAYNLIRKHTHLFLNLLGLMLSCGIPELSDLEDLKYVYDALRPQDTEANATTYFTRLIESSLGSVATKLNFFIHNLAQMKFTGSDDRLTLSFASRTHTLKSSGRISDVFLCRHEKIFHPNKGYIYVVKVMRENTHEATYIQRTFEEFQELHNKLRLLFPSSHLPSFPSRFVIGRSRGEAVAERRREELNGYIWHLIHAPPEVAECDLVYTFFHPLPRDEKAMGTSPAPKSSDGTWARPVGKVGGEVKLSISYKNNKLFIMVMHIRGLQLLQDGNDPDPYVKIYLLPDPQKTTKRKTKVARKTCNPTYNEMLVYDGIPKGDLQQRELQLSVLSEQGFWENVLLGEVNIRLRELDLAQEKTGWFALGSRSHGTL

[15] = system: ERK1/2; experiment: Immunoblot of ERK1/2 phosphorylation in MM cells; format: cell-based; settings: DT97 500 nm or 1 uM for 48 h
[16] = system: AKT; experiment: Immunoblot of AKT phosphorylation in MM cells; format: cell-based; settings: DT97 500 nm or 1 uM for 48 h
[17] = target: ERBB2 (Homo sapiens, UniProt P04626); experiment: Kinase inhibitory profile; format: biochemical; settings: Other Clinically-relevant Kinases; 10-point concentration assays
[18] = system: SF-539; experiment: NCI-60 panel cell growth screen; format: cell-based, human; settings: SF-539 (CNS Cancer)
[19] = system: HL-60 (TB); settings: HL-60 (TB) (Leukemia)
[20] = system: BMSCs; experiment: XTT viability of BMSCs; format: cell-based; settings: 72 h, XTT assay
[21] = system: SW-620; experiment: NCI-60 panel cell growth screen; format: cell-based, human; settings: SW-620 (Colon cancer)
[22] = system: PDGFR; experiment: Kinase inhibitory profile; format: biochemical; settings: Other Clinically-relevant Kinases; 10-point concentration assays
[23] = read-out: LC50 (the source's name)

VPS34, sequence (Q8NEB9 whole entry): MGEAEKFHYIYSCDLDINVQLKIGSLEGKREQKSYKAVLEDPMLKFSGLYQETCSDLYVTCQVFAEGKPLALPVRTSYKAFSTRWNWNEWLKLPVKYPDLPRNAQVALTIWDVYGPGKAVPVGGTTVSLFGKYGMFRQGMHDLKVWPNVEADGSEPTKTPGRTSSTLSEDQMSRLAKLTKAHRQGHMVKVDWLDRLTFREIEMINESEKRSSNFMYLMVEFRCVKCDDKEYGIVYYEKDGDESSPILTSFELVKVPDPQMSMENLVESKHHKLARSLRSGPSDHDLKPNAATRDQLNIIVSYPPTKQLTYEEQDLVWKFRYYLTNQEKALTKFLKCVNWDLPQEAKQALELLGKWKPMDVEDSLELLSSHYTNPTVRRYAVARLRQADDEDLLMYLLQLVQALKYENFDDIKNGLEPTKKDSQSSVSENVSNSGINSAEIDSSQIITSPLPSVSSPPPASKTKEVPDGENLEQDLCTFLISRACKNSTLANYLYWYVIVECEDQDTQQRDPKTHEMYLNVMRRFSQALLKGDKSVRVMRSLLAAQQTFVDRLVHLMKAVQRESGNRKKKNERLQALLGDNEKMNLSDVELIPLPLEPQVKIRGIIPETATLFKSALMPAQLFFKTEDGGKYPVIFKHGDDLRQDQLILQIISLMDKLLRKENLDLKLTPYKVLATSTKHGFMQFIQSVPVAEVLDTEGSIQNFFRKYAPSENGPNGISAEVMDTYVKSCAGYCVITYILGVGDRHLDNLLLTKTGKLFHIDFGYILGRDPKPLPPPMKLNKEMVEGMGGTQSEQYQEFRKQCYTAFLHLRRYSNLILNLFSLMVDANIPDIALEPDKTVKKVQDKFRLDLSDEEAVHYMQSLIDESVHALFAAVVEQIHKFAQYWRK

Substance: N-[4-hydroxy-3-(8-quinolinylthio)-1-naphthyl]benzenesulfonamide [DT97]
- Inhibitory profile (kinase inhibition) [1]: none
- viability [2]: little effect
- GI50 [3]: 546 nM
- LC50 [3]: > 100000 nM
- TGI [3]: 5.53E-6
- Percent Growth ([3]; log concentration −4.0): −28%
- Percent Growth ([3]; log concentration −5.0): 9%
- Percent Growth ([3]; log concentration −6.0): 27%
- Percent Growth ([3]; log concentration −7.0): 116%
- Percent Growth ([3]; log concentration −8.0): 111%
- Inhibitory profile (kinase inhibition) [4]: +
- viability [5]: more potently than idelalisib
- Inhibitory profile (kinase inhibition) [6]: none
- Inhibitory profile (kinase inhibition) [7]: +
- migration of MM cells into the lower chambers with BMSCs [8]: reduced the migration
- GI50 [9]: 1480 nM
- TGI [9]: 1.28E-5
- Percent Growth ([9]; log concentration −4.0): −68%
- Percent Growth ([9]; log concentration −5.0): 8%
- Percent Growth ([9]; log concentration −6.0): 59%
- Percent Growth ([9]; log concentration −7.0): 100%
- Percent Growth ([9]; log concentration −8.0): 98%
- CC50 [9, 23]: 57700 nM
- GI50 [10]: 2610 nM
- TGI [10]: 7.38E-6
- Percent Growth ([10]; log concentration −4.0): −89%
- Percent Growth ([10]; log concentration −5.0): −15%
- Percent Growth ([10]; log concentration −6.0): 96%
- Percent Growth ([10]; log concentration −7.0): 77%
- Percent Growth ([10]; log concentration −8.0): 84%
- CC50 [10, 23]: 29800 nM
- GI50 [11]: 464 nM
- TGI [11]: 2.50E-6
- Percent Growth ([11]; log concentration −4.0): −70%
- Percent Growth ([11]; log concentration −5.0): −40%
- Percent Growth ([11]; log concentration −6.0): 27%
- Percent Growth ([11]; log concentration −7.0): 97%
- Percent Growth ([11]; log concentration −8.0): 100%
- CC50 [11, 23]: 21200 nM
- GI50 [12]: 2310 nM
- LC50 [12]: 39400 nM
- TGI [12]: 1.37E-5
- Percent Growth ([12]; log concentration −4.0): −94%
- Percent Growth ([12]; log concentration −5.0): 15%
- Percent Growth ([12]; log concentration −6.0): 70%
- Percent Growth ([12]; log concentration −7.0): 94%
- Percent Growth ([12]; log concentration −8.0): 94%
- GI50 [13]: 1010 nM
- TGI [13]: 8.55E-6
- Percent Growth ([13]; log concentration −4.0): −99%
- Percent Growth ([13]; log concentration −5.0): −4%
- Percent Growth ([13]; log concentration −6.0): 50%
- Percent Growth ([13]; log concentration −7.0): 93%
- Percent Growth ([13]; log concentration −8.0): 97%
- Inhibitory profile (kinase inhibition) [14]: +
- phosphorylation of ERK1/2 at Thre202/Tyr-204 [15]: reduced the phosphorylation
- phosphorylation of AKT at Ser308/Thr473 [16]: reduced the phosphorylation
- Inhibitory profile (kinase inhibition) [17]: +
- GI50 [18]: 957 nM
- TGI [18]: 5.13E-6
- Percent Growth ([18]; log concentration −4.0): −86%
- Percent Growth ([18]; log concentration −5.0): −20%
- Percent Growth ([18]; log concentration −6.0): 49%
- Percent Growth ([18]; log concentration −7.0): 98%
- Percent Growth ([18]; log concentration −8.0): 93%
- CC50 [18, 23]: 28500 nM
- GI50 [19]: 487 nM
- TGI [19]: 4.69E-6
- Percent Growth ([19]; log concentration −4.0): −63%
- Percent Growth ([19]; log concentration −5.0): −15%
- Percent Growth ([19]; log concentration −6.0): 31%
- Percent Growth ([19]; log concentration −7.0): 93%
- Percent Growth ([19]; log concentration −8.0): 99%
- CC50 ([19]; read-out: LC50): 53100 nM
- viability [20]: did not significantly reduce the viability
- GI50 [21]: 1040 nM
- TGI [21]: 1.16E-5
- Percent Growth ([21]; log concentration −4.0): −49%
- Percent Growth ([21]; log concentration −5.0): 3%
- Percent Growth ([21]; log concentration −6.0): 51%
- Percent Growth ([21]; log concentration −7.0): 88%
- Percent Growth ([21]; log concentration −8.0): 94%
- CC50 [21, 23]: > 100000 nM
- Inhibitory profile (kinase inhibition) [22]: none
